From patent US5786335A, “Sulfhydryl containing peptides for treating vascular disease” (Warner-Lambert Company, priority 1996, dated 1998) come the findings set out here.

Residues, ends and D or L forms follow the SMILES beside them. No end group written: not given here.

This assay has as its target Lp(a) formation (coupling between apo(a) and LDL) (Homo sapiens, UniProt P08519). The experiment in a line: in vitro Lp(a) formation assay: coupling of recombinant human apo(a) with LDL, western blot with densitometry or visual inspection. Format: biochemical. The arrangement: key to Relative Activity: An easily detectable change from control was assigned as (+); a marked change from control was assigned as (++). The settings on record: for inhibition at 125 µM: 125 μM peptide, densitometry of Lp(a) bands; for inhibition at 125 µM / IC50: 37° C. for 30 minutes; for IC50: western blot, read-out: IC50 (concentration required to inhibit 50% of Lp(a) formation). On the procedure:
As pointed out above, the peptides of this invention are useful for treating vascular diseases due to their ability to inhibit formation of Lp(a). The compounds have been evaluated in an in vitro assay which established that the subject compounds are potent inhibitors of Lp(a) formation. The assay was carried out by mixing approximately equal quantities of recombinant human apo(a) with low-density lipoprotein (LDL) in a […] microcentrifuge tube. Control vessels contained no invention peptide, whereas test vessels contained a peptide of Formula I. The mixtures were incubated at 37° C. for 30 minutes. The coupling between apo(a) and LDL was quenched by addition of sodium dodecylsulfate (SDS)-PAGE loading buffer. The mixture is next resolved on 4% polyacrylamide gels, and Lp(a) is detected by western blotting using a monospecific human Lp(a) antibody. The intensity of the Lp(a) bands on the blots is measured by a commercial densitometer.
Table I below gives the percent inhibition of Lp(a) formation at 125 μM concentration of representative peptides of the invention, as well as the concentration of representative compounds required to inhibit 50% of Lp(a) formation (IC50).
Additional compounds were evaluated in the above assay, and the western blots were visually inspected for changes in Lp(a) particle formation as a consequence of peptide mediated inhibition. Experimental lanes were visually compared to control lanes and assessed as follows: An easily detectable change from control was assigned as (+); a marked change from control was assigned as (++).
(In general: In western blotting, separated proteins are transferred to a membrane and probed.)

Lp(a) formation (coupling between apo(a) and LDL), sequence (P08519 20-2040): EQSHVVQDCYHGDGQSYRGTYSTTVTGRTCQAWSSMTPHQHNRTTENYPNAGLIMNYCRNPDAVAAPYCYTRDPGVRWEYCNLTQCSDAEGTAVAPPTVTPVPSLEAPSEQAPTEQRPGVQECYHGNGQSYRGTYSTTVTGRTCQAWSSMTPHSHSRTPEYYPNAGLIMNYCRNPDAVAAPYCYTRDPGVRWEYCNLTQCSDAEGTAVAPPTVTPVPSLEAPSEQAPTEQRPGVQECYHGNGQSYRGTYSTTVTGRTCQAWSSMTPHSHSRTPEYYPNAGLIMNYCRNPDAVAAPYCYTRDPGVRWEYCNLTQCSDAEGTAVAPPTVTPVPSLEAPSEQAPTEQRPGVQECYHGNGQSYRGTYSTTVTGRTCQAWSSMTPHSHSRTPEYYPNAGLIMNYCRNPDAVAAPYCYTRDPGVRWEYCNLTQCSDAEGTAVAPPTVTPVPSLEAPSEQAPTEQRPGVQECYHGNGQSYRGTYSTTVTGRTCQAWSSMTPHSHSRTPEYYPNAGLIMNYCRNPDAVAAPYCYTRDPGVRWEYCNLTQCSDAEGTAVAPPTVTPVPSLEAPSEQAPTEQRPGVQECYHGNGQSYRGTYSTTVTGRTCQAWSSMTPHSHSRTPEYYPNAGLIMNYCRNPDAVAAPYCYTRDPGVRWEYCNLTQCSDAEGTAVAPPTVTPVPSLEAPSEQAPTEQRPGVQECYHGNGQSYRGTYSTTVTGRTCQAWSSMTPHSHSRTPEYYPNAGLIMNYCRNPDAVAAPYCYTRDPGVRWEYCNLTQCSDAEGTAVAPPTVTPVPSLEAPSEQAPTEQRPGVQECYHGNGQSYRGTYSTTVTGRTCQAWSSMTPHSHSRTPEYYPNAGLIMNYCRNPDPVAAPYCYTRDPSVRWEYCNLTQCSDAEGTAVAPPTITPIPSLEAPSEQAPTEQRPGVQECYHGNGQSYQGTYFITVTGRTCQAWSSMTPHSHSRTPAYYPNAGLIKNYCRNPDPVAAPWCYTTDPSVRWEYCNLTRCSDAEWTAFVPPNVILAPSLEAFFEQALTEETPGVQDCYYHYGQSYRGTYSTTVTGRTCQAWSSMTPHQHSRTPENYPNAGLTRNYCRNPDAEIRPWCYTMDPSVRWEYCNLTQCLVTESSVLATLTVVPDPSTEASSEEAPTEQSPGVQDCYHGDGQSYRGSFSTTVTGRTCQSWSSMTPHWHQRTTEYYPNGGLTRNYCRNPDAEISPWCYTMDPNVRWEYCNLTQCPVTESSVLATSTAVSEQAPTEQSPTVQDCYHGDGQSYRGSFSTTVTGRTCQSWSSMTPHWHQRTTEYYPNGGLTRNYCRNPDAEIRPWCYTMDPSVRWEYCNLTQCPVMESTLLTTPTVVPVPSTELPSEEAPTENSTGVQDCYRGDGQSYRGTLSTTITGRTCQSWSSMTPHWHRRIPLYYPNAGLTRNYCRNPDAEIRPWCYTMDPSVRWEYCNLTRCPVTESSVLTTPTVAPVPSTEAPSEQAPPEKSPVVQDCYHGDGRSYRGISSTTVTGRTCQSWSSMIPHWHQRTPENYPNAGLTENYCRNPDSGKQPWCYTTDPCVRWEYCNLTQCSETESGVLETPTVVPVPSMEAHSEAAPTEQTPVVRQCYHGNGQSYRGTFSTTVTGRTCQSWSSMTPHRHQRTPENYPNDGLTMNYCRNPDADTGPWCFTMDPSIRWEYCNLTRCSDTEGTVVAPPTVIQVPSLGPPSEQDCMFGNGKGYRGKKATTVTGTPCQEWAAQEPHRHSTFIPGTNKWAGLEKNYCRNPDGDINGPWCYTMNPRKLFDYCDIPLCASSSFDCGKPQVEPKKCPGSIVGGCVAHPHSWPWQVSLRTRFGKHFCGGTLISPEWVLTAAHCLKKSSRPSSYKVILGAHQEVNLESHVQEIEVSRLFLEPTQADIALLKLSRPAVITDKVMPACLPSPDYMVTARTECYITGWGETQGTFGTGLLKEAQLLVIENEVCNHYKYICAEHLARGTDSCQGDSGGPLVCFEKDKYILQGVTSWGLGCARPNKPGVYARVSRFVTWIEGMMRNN

On to AQCYK [Ala--Gln--Cys--Tyr--Lys], for which the inhibition (in general, the share of the control response that was lost under treatment) at 125 µM turned out to be 36.9%. On the same count and under the same terms, under IQCAK [Ile--Gln--Cys--Ala--Lys] stands 76.4%. In the case of `CC(=O)N[C@@H](CS)C(=O)N[C@@H](Cc1ccc(O)cc1)C(=O)N[C@@H](CCCCN)C(N)=O` [Ac--Cys--Tyr--Lys--NH2] (Ac-Cys-Tyr-Lys-NH2), the “Relative Activity” value (western blots visually inspected, experimental lanes compared to control lanes) is listed as “+”. Consider `NCCCC[C@H](NC(=O)[C@H](Cc1ccc(O)cc1)NC(=O)[C@@H](N)CS)C(=O)O` [Cys--Tyr--Lys] (H-Cys-Tyr-Lys-OH), for which the inhibition at 125 µM turned out to be 90% and the IC50 came out at 50 µM. On the same counts, the results for “IQCYK [Ile--Gln--Cys--Tyr--Lys, Ile-Gln-Cys-Tyr-Lys]” are 50.1% and 109 µM. Turning to IACYK [Ile--Ala--Cys--Tyr--Lys], the inhibition at 125 µM was found to be 29.8%.
